# Experimental data as given in paper PMC11946789, “Two Amino Acid Substitutions Improve the Pharmacological Profile of the Snake Venom Peptide Mambalgin” (Toxins, 2025).
# Entries after “also recorded” stand apart in the source; their conditions may differ. Bridges are numbered along the chain shown (N, C = ends). Where no end group is shown, it is not given here.
# Biological target: T1, homomeric rat ASIC1b (rASIC1b) (Rattus norvegicus, UniProt P55926)
# T1 construct: expressed in transfected cells; host or cells: Xenopus laevis oocytes, mRNA microinjected
# T1 sequence (P55926 1-559 isoform P55926-3): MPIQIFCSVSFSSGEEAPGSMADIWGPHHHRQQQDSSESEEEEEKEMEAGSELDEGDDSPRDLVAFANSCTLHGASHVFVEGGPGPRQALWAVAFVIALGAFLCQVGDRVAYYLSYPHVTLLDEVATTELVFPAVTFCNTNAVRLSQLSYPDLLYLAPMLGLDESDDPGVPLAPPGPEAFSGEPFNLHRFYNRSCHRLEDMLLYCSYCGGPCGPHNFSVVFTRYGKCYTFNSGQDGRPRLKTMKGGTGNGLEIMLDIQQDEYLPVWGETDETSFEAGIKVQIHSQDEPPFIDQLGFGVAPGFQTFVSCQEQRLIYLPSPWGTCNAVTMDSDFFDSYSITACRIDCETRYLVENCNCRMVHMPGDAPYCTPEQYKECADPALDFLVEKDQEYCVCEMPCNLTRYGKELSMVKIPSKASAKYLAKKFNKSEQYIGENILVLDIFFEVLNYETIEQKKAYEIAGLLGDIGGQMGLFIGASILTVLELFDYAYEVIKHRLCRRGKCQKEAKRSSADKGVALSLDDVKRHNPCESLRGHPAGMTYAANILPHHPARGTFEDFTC
# Test: TEVC recordings, homomeric rASIC1b
# Type: cell-based
# Text: Figure 4 The inhibitory effect of Mamb-AL on other ASIC1-containing channels exceeds that of Mamb. (A,C) Representative current traces showing the effects of various concentrations of Mamb (left panels) and Mamb-AL (right panels) on homomeric rat ASIC1b (rASIC1b) (A) and heteromeric rat ASIC1a/3 (rASIC1a/3) channels (C). Currents were evoked by a pH 5.5 stimulus following a conditioning pH of 7.4, with peptides applied for 30 s prior to the pH stimulus. (B) Dose–response curves for the inhibitory effects of Mamb and Mamb-AL on rASIC1b. Each data point represents measurements from 5 to 7 cells. (D) Bar graph quantifying the inhibitory effects of Mamb and Mamb-AL on rASIC1a/3, shown as a percentage of the corresponding control currents (n = 5). Data are presented as mean ± SEM; * p< 0.05, unpaired t-test. […] Data are shown as mean ± SEM; ns indicates no significant difference vs. control (dotted horizontal line), paired t-test. […]
# Whole-cell ASIC currents were measured using the two-electrode voltage clamp (TEVC) method with a GeneClamp 500 amplifier (Axon Instruments, Union City, NJ, USA). […]
# Electrophysiological and behavioral data were analyzed using OriginPro 8.6.0 (OriginLab, Washington, DC, USA). […] Statistical significance between the Mamb and Mamb-AL groups was determined using an unpaired t-test. […]
sequence,measurement,setting,value
"LKCYQHGKVVTCHRDAKFCYHNTGLPFRNLKLILQGCSSSCSETENNKCCSTDRCNK (disulfide 3-19, 12-37, 41-49, 50-55 (inferred)) [Mamb-AL]",greater potency / inhibition of rASIC1b,compared with Mamb,five-fold; also recorded: five times greater potency
same,IC50,"pH stimulus 5.5, conditioning pH 7.4, peptide applied 30 s before stimulus, Xenopus laevis oocytes, mean ± SEM, 5 to 7 cells",22 ± 1 nM
